{"source": "patent US11028077B2", "about": "“Crystalline pharmaceutical and methods of preparation and use thereof” (NOVARTIS PHARMACEUTICALS CORPORATION, priority 2008, dated 2021)", "key": {"[1]": {"test": "Single dose ocular and IV ADME study with [14C]-compound in rats, quantitative whole body autoradiography", "format": "in vivo, rat", "conditions": "for excretion in feces, % of the administered radioactivity: 0 to 168 hours postdose"}, "[2]": {"test": "Rat ocular pharmacokinetics of [14C]-compound (ocular tissue levels)", "format": "in vivo", "conditions": "for Concentration, Aqueous humor: ocular dosing in rats"}, "[3]": {"tested_on": "human mononuclear cells (PBMC) stimulated with staphylococcal enterotoxin B (SEB)", "test": "cells", "format": "cell-based"}, "[4]": {"conditions": "0.5 hour postdose, topical ocular 1 mg/eye"}, "[5]": {"conditions": "0.5 hour postdose, topical ocular 1 mg/eye, above upper limit of quantification"}, "[6]": {"conditions": "8 hours postdose, topical ocular 1 mg/eye"}, "[7]": {"conditions": "24 hours postdose, topical ocular 1 mg/eye"}, "[8]": {"conditions": "at 2 hours postdose vs 0.5 hour"}}, "note": "Like-named read-outs stand apart in the source and are kept apart here.", "data": [{"smiles": "CS(=O)(=O)c1cccc(C[C@H](NC(=O)c2c(Cl)cc3c(c2Cl)CCN(C(=O)c2ccc4ccoc4c2)C3)C(=O)O)c1", "note": "[[^14C]-compound of Formula I]", "values": [{"measurement": "radioactivity concentration, eye", "setting": "[1]; [4]", "value": "18100 ng equivalents [^14C]-compound of Formula I/g"}, {"measurement": "radioactivity concentration, liver", "setting": "[1]; [4]", "value": "272 ng equivalents [^14C]-compound of Formula I/g"}, {"measurement": "radioactivity concentration, uveal tract", "setting": "[1]; [4]", "value": "9330 ng equivalents [^14C]-compound of Formula I/g"}, {"measurement": "radioactivity concentration, esophageal contents", "setting": "[1]; 0.5 hour postdose, topical ocular 1 mg/eye, male Sprague Dawley rats, above upper limit of quantification", "value": "399000 ng equivalents [^14C]-compound of Formula I/g"}, {"measurement": "radioactivity concentration, nasal turbinates", "setting": "[1]; [5]", "value": "352000 ng equivalents [^14C]-compound of Formula I/g"}, {"measurement": "radioactivity concentration, small intestinal contents", "setting": "[1]; [5]", "value": "349000 ng equivalents [^14C]-compound of Formula I/g"}, {"measurement": "radioactivity level, eye lens", "setting": "[1]; 2 hours postdose, topical ocular 1 mg/eye", "value": "BLQ"}, {"measurement": "radioactivity concentration, cecum contents", "setting": "[1]; [6]", "value": "57600 ng equivalents [^14C]-compound of Formula I/g"}, {"measurement": "radioactivity concentration, large intestinal contents", "setting": "[1]; [6]", "value": "133000 ng equivalents [^14C]-compound of Formula I/g"}, {"measurement": "radioactivity concentration, uveal tract", "setting": "[1]; 12 hours postdose, topical ocular 1 mg/eye", "value": "610 ng equivalents [^14C]-compound of Formula I/g"}, {"measurement": "radioactivity concentration, cecum contents", "setting": "[1]; [7]", "value": "5870 ng equivalents [^14C]-compound of Formula I/g"}, {"measurement": "radioactivity concentration, large intestinal contents", "setting": "[1]; [7]", "value": "18000 ng equivalents [^14C]-compound of Formula I/g"}, {"measurement": "excretion in feces, % of the administered radioactivity", "setting": "[1]; IV administration 10 mg/kg", "value": "~95", "unit": "%"}, {"measurement": "decline of radioactivity concentration, esophageal contents", "setting": "[1]; [8]", "value": "~100", "unit": "fold"}, {"measurement": "decline of radioactivity concentration, esophagus", "setting": "[1]; [8]", "value": "approximately 50 fold"}, {"measurement": "excretion in feces, % of the administered radioactivity", "setting": "[1]; ocular administration 1 mg/eye", "value": "approximately 60%"}, {"measurement": "Urinary excretion, % of the administered radioactivity", "setting": "[1]; ocular or IV administration", "value": "up to 2%"}, {"measurement": "metabolites in pooled plasma, urine and fecal homogenates", "setting": "[1]; rats, up to 168 hrs following topical ocular or IV dose", "value": "no metabolites were isolated"}, {"measurement": "Concentration, Conjunctiva (bulbar)", "setting": "[2]; 0.5 hour after administration", "value": "31500 ng Equivalents [^14C]-compound of Formula I/g tissue"}, {"measurement": "Concentration, Conjunctiva (palpebral)", "setting": "[2]; 0.5 hour after administration", "value": "26300 ng Equivalents [^14C]-compound of Formula I/g tissue"}, {"measurement": "Concentration, Cornea", "setting": "[2]; 0.5 hour after administration", "value": "17150 ng Equivalents [^14C]-compound of Formula I/g tissue"}, {"measurement": "Concentration, Iris-ciliary body", "setting": "[2]; 0.5 hour after administration", "value": "17550 ng Equivalents [^14C]-compound of Formula I/g tissue"}, {"measurement": "Concentration, Lens", "setting": "[2]; 0.5 hour after administration", "value": "38.8 ng Equivalents [^14C]-compound of Formula I/g tissue"}, {"measurement": "Concentration, Optic Nerve", "setting": "[2]; 0.5 hour after administration", "value": "796 ng Equivalents [^14C]-compound of Formula I/g tissue"}, {"measurement": "Concentration, Retina and Choroid (with RPE)", "setting": "[2]; 0.5 hour after administration", "value": "510 ng Equivalents [^14C]-compound of Formula I/g tissue"}, {"measurement": "Concentration, Sclera", "setting": "[2]; 0.5 hour after administration", "value": "2750 ng Equivalents [^14C]-compound of Formula I/g tissue"}, {"measurement": "Concentration, Vitreous Humor", "setting": "[2]; 0.5 hour after administration", "value": "1330 ng Equivalents [^14C]-compound of Formula I/g tissue"}, {"measurement": "Concentration, Aqueous humor", "setting": "[2]; 0.5 hour after administration", "value": "1770 ng Equivalents [^14C]-compound of Formula I/g tissue"}, {"measurement": "Concentration, Conjunctiva (bulbar)", "setting": "[2]; 4.0 hours after administration", "value": "4480 ng Equivalents [^14C]-compound of Formula I/g tissue"}, {"measurement": "Concentration, Conjunctiva (palpebral)", "setting": "[2]; 4.0 hours after administration", "value": "21830 ng Equivalents [^14C]-compound of Formula I/g tissue"}, {"measurement": "Concentration, Cornea", "setting": "[2]; 4.0 hours after administration", "value": "1346 ng Equivalents [^14C]-compound of Formula I/g tissue"}, {"measurement": "Concentration, Iris-ciliary body", "setting": "[2]; 4.0 hours after administration", "value": "500 ng Equivalents [^14C]-compound of Formula I/g tissue"}, {"measurement": "Concentration, Lens", "setting": "[2]; 4.0 hours after administration", "value": "9.69 ng Equivalents [^14C]-compound of Formula I/g tissue"}, {"measurement": "Concentration, Optic Nerve", "setting": "[2]; 4.0 hours after administration", "value": "0 ng Equivalents [^14C]-compound of Formula I/g tissue"}, {"measurement": "Concentration, Retina and Choroid (with RPE)", "setting": "[2]; 4.0 hours after administration", "value": "46.7 ng Equivalents [^14C]-compound of Formula I/g tissue"}, {"measurement": "Concentration, Sclera", "setting": "[2]; 4.0 hours after administration", "value": "387 ng Equivalents [^14C]-compound of Formula I/g tissue"}, {"measurement": "Concentration, Vitreous Humor", "setting": "[2]; 4.0 hours after administration", "value": "183 ng Equivalents [^14C]-compound of Formula I/g tissue"}, {"measurement": "Concentration, Aqueous humor", "setting": "[2]; 4.0 hours after administration", "value": "116 ng Equivalents [^14C]-compound of Formula I/g tissue"}]}, {"smiles": "O=C(NC(Cc1cc(=O)[nH]c2ccccc12)C(=O)O)c1ccc(Cl)cc1", "note": "(stereo not drawn) [Rebamipide, reference compound]", "values": [{"measurement": "EC50", "setting": "[3]; read-out: EC50 Cytokine Release GM-CSF", "value": "> 1", "unit": "mM"}, {"measurement": "EC50", "setting": "[3]; read-out: EC50 Cytokine Release IFNγ", "value": "> 1", "unit": "mM"}, {"measurement": "EC50", "setting": "[3]; read-out: EC50 Cytokine Release IL-1α", "value": "> 1", "unit": "mM"}, {"measurement": "EC50", "setting": "[3]; read-out: EC50 Cytokine Release IL-1β", "value": "> 1", "unit": "mM"}, {"measurement": "EC50", "setting": "[3]; read-out: EC50 Cytokine Release IL-2", "value": "> 1", "unit": "mM"}, {"measurement": "EC50", "setting": "[3]; read-out: EC50 Cytokine Release IL-3", "value": "> 1", "unit": "mM"}, {"measurement": "EC50", "setting": "[3]; read-out: EC50 Cytokine Release IL-4", "value": "> 1", "unit": "mM"}, {"measurement": "EC50", "setting": "[3]; read-out: EC50 Cytokine Release IL-5", "value": "> 1", "unit": "mM"}, {"measurement": "EC50", "setting": "[3]; read-out: EC50 Cytokine Release IL-6", "value": "> 1", "unit": "mM"}, {"measurement": "EC50", "setting": "[3]; read-out: EC50 Cytokine Release IL-10", "value": "> 1", "unit": "mM"}, {"measurement": "EC50", "setting": "[3]; read-out: EC50 Cytokine Release IL-12p40", "value": "> 1", "unit": "mM"}, {"measurement": "EC50", "setting": "[3]; read-out: EC50 Cytokine Release IL-13", "value": "> 1", "unit": "mM"}, {"measurement": "EC50", "setting": "[3]; read-out: EC50 Cytokine Release IP-10", "value": "> 1", "unit": "mM"}, {"measurement": "EC50", "setting": "[3]; read-out: EC50 Cytokine Release MCP-1", "value": "> 1", "unit": "mM"}, {"measurement": "EC50", "setting": "[3]; read-out: EC50 Cytokine Release MIP-1α", "value": "> 1", "unit": "mM"}, {"measurement": "EC50", "setting": "[3]; read-out: EC50 Cytokine Release TNF-α", "value": "> 1", "unit": "mM"}]}]}
